Read-outs that look alike come from different tables or passages of the source.
Key:
Candida albicans = assay: Microplate dilution assay MIC/MLC; format: cell-based; conditions: for MIC < 10%: growth less than 10% of control; for MIC < 50%: growth less than 50% of control; for MLC: minimum lethal concentration
Experimental: (§1) The minimum inhibitory concentration (MIC) and the minimum lethal concentration (MLC) of the chemicals were determined using a microplate dilution assay. Quats were provided as aqueous solutions, while Triclosan and Chloroxylenol were provide as powders which were first dissolved at 5 weight percent in absolute ethanol. A two-fold serial dilution series of each test chemical was prepared in Trypticase Soy Broth at 20% of the standard concentration (TSB20) and in Sabouraud Dextrose Broth at 20% of the standard concentration (SDB20) in 96-well micro-titer plates. A total of 10 dilutions were prepared and four replicate tests were performed for each dilution. […] Control solutions containing only media were included for each plate. Suspensions of Staphylococcus aureus, Escherichia coli, and Candida albicans were prepared from one-day old agar plate cultures in Butterfields Phosphate Diluent to a concentration of approximately 10^7 to 10^8 cells per milliliter. Each test well was inoculated with the diluted culture suspensions at a concentration of 10^3 to 10^4 cells per well and then incubated at 32° C. with shaking at 150 rpm for approximately 24 hours, after which the optical density of each well was determined spectrophotometrically at 600 nm. Wells containing uninoculated media without test chemical were included in each plate as negative controls and, following inoculation, as positive controls.
(§2) Selected wells at or below the MIC were tested for MLC by spotting three microliters from each replicate well onto Trypticase Soy agar for S. aureus and E. coli, or Sabouraud Dextrose agar for C. albicans.

Staphylococcus aureus = assay: Microplate dilution assay MIC/MLC; format: cell-based; conditions: for MIC < 10%: growth less than 10% of control; for MIC < 50%: growth less than 50% of control; for MLC: minimum lethal concentration
Experimental: as §1, §2

Escherichia coli = assay: Microplate dilution assay MIC/MLC; format: cell-based; conditions: for MIC < 10%: growth less than 10% of control, 24 hours, 32° C.; for MIC < 50%: growth less than 50% of control; for MLC: minimum lethal concentration
Experimental: as §1, §2

[1] = Ready Biodegradability CO2 Evolution Test OECD 301B
Experimental: The biodegradability of the branched aldehyde intermediates of Example 2 (4-ethyl-2-methyloctanal) and Example 25 (2,4-diethyl-2-octenal) were determined by the Ready Biodegradability—CO2 Evolution Test—Degradation of test compound according to OECD Guidelines for Testing of Chemicals CO2 Evolution Test 301B.

[2] = Draves Wetting Test (ASTM D2281-68); format: physicochemical; conditions: 0.05 wt % (actives basis) in DI water; average of 3 measurements
Experimental: A 0.05 wt % (actives basis) solution of amine oxide in deionized (DI) water was used to determine the Draves wet-out time (WOT) in seconds. 0.75 g of surfactant was dispersed in 1,500 ml of DI water. The wet-out time (WOT) in seconds is recorded in Table 14 (average of 3 measurements). LAO is Lauramine oxide (linear hydrophobe), Sigma catalog number 40236.

[3] = Foam height, high shear (Waring blender); format: physicochemical
Experimental: A 0.05 wt % (actives basis) solution of the test surfactant was made in deionized water. 250 ml of the test solution was added the beaker of a Waring blender, capped, and then blended on High for 30 seconds and immediately transferred to a 1 L graduated cylinder. The total volume of foam plus liquid, as well as the liquid layer alone was recorded. The foam and liquid volumes were recorded again after 5 minutes.

[4] = Foaming of amine oxide added to commercial laundry liquid (Waring blender); format: physicochemical; set-up: Difference: unit: ml; conditions: for Difference: initial minus 5 min foam volume
Experimental: The surface foam volume and foam persistence of solutions of the amine oxides with linear and branched hydrophobes from Examples […] were compared. A commercial laundry liquid was diluted in deionized water according to the dosing instructions; 4.2 ml/L Persil Original. The diluted detergent was supplemented with 0%, 2%, 5% (based on wt laundry liquid) of LAO or Branched C12 AO, (2,4-diethyl-N,N-dimethyloctan-1-amine oxide, Example 66), and the solutions mixed briefly and used immediately. 250 ml of each test solution was added the beaker of a Waring blender, capped, and then blended on High for 30 seconds and immediately transferred to a 1 L graduated cylinder. The total volume of foam plus liquid, as well as the liquid layer alone was recorded. The foam and liquid volumes were recorded again after 5 minutes. All tests were performed in triplicate.

zein protein = tested on: zein protein
From the text: Amine oxides with linear and branched hydrophobes from Examples 65 and 66 were compared in a screen to predict mildness of surfactants. There is a correlation between the ability of a surfactant to denature a protein and the skin irritation potential of that surfactant. The relationship is believed to result from surfactant binding to proteins like keratin, followed by the denaturation of these proteins, leading to skin irritation. A common screening test involves measuring the amount of zein (a corn protein which is insoluble in water) solubilized by a surfactant solution, the Zein Solubilization Test (Moore et al., 2003 and references therein)
For the test, 0.0750 g of zein protein is transferred into a 1.5 mL centrifuge tube. To this 1.5 mL of 1% surfactant solution is added, mixed, and placed in a 30 C incubator with mild stirring for 30 minutes. After 30 minutes has elapsed, the tube is centrifuged for 30 min at 3600 rpm. The solution is filtered through a pre-weighed 8 micron filter paper, and then dried overnight in a 50° C. oven. The insoluble zein residue is then weighed and the wt % Zein dissolved is calculated using the equation below. Each solution is analyzed in triplicate. The Zein score is normalized to a standard included in each set of tests, in this case LAE10.
% zein dissolved=(total zein added−total zein after drying Total zein added)×100

[5] = Solubility of N-alkyl-N-methylglucamines in MilliQ water and SLS/SDS solution; format: physicochemical; conditions: for Solubility in 10 wt % SLS / Solubility in pure MilliQ: heated to 80° C., ultrasonicated, cooled to room temperature; for Solubility in 10 wt % SLS: pH 10.8-11.1; for Solubility in 10 wt % SDS: pH 11.8-12.1; for Solubility in pure MilliQ: pH 9-9.5
Experimental: The solubility of three N-alkyl-N-methylglucamines (i.e., N-(2-ethyl-hexyl)-N-methylglucamine, N-decyl-N-methylglucamine, and N-(4-ethyl-2-methyloctyl)-N-methylglucamine) was investigated in pure MilliQ water and in a 10 wt % sodium lauryl sulfate (SLS) solution. The mixtures were heated to 80° C., ultrasonicated, and cooled to room temperature.

[6] = High-shear foaming of N-alkyl-N-methylglucamines in commercial blender; format: physicochemical; conditions: 1 wt % test substance in 10 wt % SDS, diluted to 0.05 wt % surfactant
Experimental: The high-shear foaming behavior of linear and branched N-alkyl-N glucamines was investigated, as this can have an impact on their performance in home care applications. […] The solutions were heated to 80° C., ultrasonicated for 1 h, and cooled to room temperature. Finally, the as-obtained solutions were diluted with MilliQ water to obtain a 0.05 wt % surfactant solution. In agreement with the literature on branched hydrophobes, the high-shear foaming tests performed in the commercial blender indicate that the linear N-decyl-N-methylglucamine (IC10 NMG) solution foams relatively more than its branched counterpart solution. For all solutions, the initial foam volume is between 40 and 53 mL. Lauramine oxide (LAO) appears to be foamier than the N-alkyl-N-methylglucamines.

CCCCCCCCCCCC[N+](C)(C)Cc1ccccc1.[Cl-] [BAC-12 linear]
MIC < 10% (Candida albicans): 0.0016 Weight percent | MIC < 50% (Candida albicans): 0.00078 Weight percent | MLC (Candida albicans): 0.0016 Weight percent | MIC < 10% (Staphylococcus aureus): 0.0002 Weight percent | MIC < 50% (Staphylococcus aureus): 0.0002 Weight percent | MLC (Staphylococcus aureus): 0.0002 Weight percent | MIC < 10% (Escherichia coli): 0.00078 Weight percent | MIC < 50% (Escherichia coli): 0.00078 Weight percent | MLC (Escherichia coli): 0.00078 Weight percent

CCCCC(CC)CC(CC)C[N+](C)(C)Cc1ccccc1.[Cl-] (stereo not shown) [BAC-b12, N-benzyl-2,4-diethyl-N,N-dimethyloctan-1-aminium chloride]
MIC < 10% (Candida albicans): 0.0063 Weight percent | MIC < 50% (Candida albicans): 0.0063 Weight percent | MLC (Candida albicans): 0.0063 Weight percent | MIC < 10% (Staphylococcus aureus): 0.00039 Weight percent | MIC < 50% (Staphylococcus aureus): 0.00039 Weight percent | MLC (Staphylococcus aureus): 0.00078 Weight percent | MIC < 10% (Escherichia coli): 0.0063 Weight percent | MIC < 50% (Escherichia coli): 0.0063 Weight percent | MLC (Escherichia coli): 0.0063 Weight percent

Cc1cc(O)cc(C)c1Cl [Chloroxylenol]
MIC < 10% (Candida albicans): 0.0083 Weight percent | MIC < 50% (Candida albicans): 0.0083 Weight percent | MLC (Candida albicans): >0.0083 Weight percent | MIC < 10% (Staphylococcus aureus): 0.0042 Weight percent | MIC < 50% (Staphylococcus aureus): 0.0042 Weight percent | MLC (Staphylococcus aureus): >0.0083 Weight percent | MIC < 10% (Escherichia coli): >0.0083 Weight percent | MIC < 50% (Escherichia coli): >0.0083 Weight percent | MLC (Escherichia coli): >0.0083 Weight percent

CCCCC(CC)CC(C)C=O (stereo not shown) [Example 2, 4-ethyl-2-methyloctanal]
Biodegradation (%) ([1]; Day 0): 0% | Biodegradation (%) ([1]; Day 2): 0% | Biodegradation (%) ([1]; Day 6): 15% | Biodegradation (%) ([1]; Day 7): 21% | Biodegradation (%) ([1]; Day 9): 31% | Biodegradation (%) ([1]; Day 14): 47% | Biodegradation (%) ([1]; Day 19): 54% | Biodegradation (%) ([1]; Day 23): 56% | Biodegradation (%) ([1]; Day 28): 57% | Biodegradation (%) ([1]; Day 29 (first line)): 57% | Biodegradation (%) ([1]; Day 29 (second line)): 61%

CCCCC(CC)CC(C=O)CC (stereo not shown) [Example 25, 2,4-diethyloctanal]
Biodegradation (%) ([1]; Day 0): 0% | Biodegradation (%) ([1]; Day 2): 0% | Biodegradation (%) ([1]; Day 6): 0% | Biodegradation (%) ([1]; Day 7): 9% | Biodegradation (%) ([1]; Day 9): 27% | Biodegradation (%) ([1]; Day 14): 48% | Biodegradation (%) ([1]; Day 19): 53% | Biodegradation (%) ([1]; Day 23): 53% | Biodegradation (%) ([1]; Day 28): 55% | Biodegradation (%) ([1]; Day 29 (first line)): 55% | Biodegradation (%) ([1]; Day 29 (second line)): 57%

CCCCC(CC)CC(CC)C[N+](C)(C)[O-] (stereo not shown) [Example 66, 2,4-diethyl-N,N-dimethyloctan-1-amine oxide]
Wet out time [2]: >300 s | Foam volume (ml) 5 min ([3]; 0.05 wt % in deionized water, after 5 minutes): 0 mL | Foam volume (ml) Initial ([3]; 0.05 wt % in deionized water, blended on High 30 seconds): 370 mL | % decrease ([3]; foam volume, initial to 5 min): 100% | Foam volume After 5 min ([4]; Persil + 2% additive): 303 mL | Difference ([4]; Persil + 2% additive): 257 | Difference ([4]; Persil + 5% additive): 280 | Initial foam volume ([4]; Persil Original 4.2 ml/L + 2% additive): 560 mL | Zein score - normalized to LAE10 (zein protein; corn, 30 min, 1 %): 0.018

CCCCC(CC)CN(C)C[C@H](O)[C@@H](O)[C@H](O)[C@H](O)CO (stereo partly shown) [N-(2-ethyl-hexyl)-N-methylglucamine, N-(2-ethylhexyl)-N-methylglucamine]
Solubility in 10 wt % SLS [5]: >1000 ppm | Solubility in 10 wt % SDS [5]: ≥1%

CCCCC(CC)CC(C)CN(C)C[C@H](O)[C@@H](O)[C@H](O)[C@H](O)CO (stereo partly shown) [N-(4-ethyl-2-methyloctyl)-N-methylglucamine]
Solubility in pure MilliQ [5]: <1000 ppm | Solubility in 10 wt % SLS [5]: >1000 ppm | Solubility in 10 wt % SDS [5]: ≥1%

CCCCCCCCCCN(C)C[C@H](O)[C@@H](O)[C@H](O)[C@H](O)CO [N-decyl-N-methylglucamine]
Foam volume after 5 seconds stirring at speed 1 [6]: 50 mL | Foam volume after 5 minutes settling [6]: 49 mL | Solubility in pure MilliQ [5]: <1000 ppm | Solubility in 10 wt % SLS [5]: >1000 ppm | Solubility in 10 wt % SDS [5]: ≥1%

Oc1cc(Cl)ccc1Oc1ccc(Cl)cc1Cl [Triclosan]
MIC < 10% (Candida albicans): 0.0016 Weight percent | MIC < 50% (Candida albicans): 0.0016 Weight percent | MLC (Candida albicans): >0.0016 Weight percent | MIC < 10% (Staphylococcus aureus): 0.00002 Weight percent | MIC < 50% (Staphylococcus aureus): 0.00002 Weight percent | MLC (Staphylococcus aureus): 0.00003 Weight percent | MIC < 10% (Escherichia coli): 0.00010 Weight percent | MIC < 50% (Escherichia coli): 0.00010 Weight percent | MLC (Escherichia coli): 0.00010 Weight percent

CCCCC(CC)CN(C)C[C@H](O)[C@@H](O)[C@H](O)[C@H](O)CO (stereo partly shown) [bC10 NMG]
Foam volume after 5 seconds stirring at speed 1 [6]: 40 mL | Foam volume after 5 minutes settling [6]: 38 mL

CC(=O)[O-].[Na+] [sodium acetate, reference compound]
Biodegradation (%) ([1]; Day 0): 0% | Biodegradation (%) ([1]; Day 2): 32% | Biodegradation (%) ([1]; Day 6): 52% | Biodegradation (%) ([1]; Day 7): 54% | Biodegradation (%) ([1]; Day 9): 60% | Biodegradation (%) ([1]; Day 14): 66% | Biodegradation (%) ([1]; Day 19): 69% | Biodegradation (%) ([1]; Day 23): 71% | Biodegradation (%) ([1]; Day 28): 72% | Biodegradation (%) ([1]; Day 29 (first line)): 74% | Biodegradation (%) ([1]; Day 29 (second line)): 78%

Sodium lauryl ether sulfate [SLES]
Zein score - normalized to LAE10 (zein protein): 3.488

— patent US20190218170A1, “BRANCHED TRIALKYLAMINE PRECURSORS, INTERMEDIATES, PRODUCTS MADE THEREFROM AND PROCESSES OF MANUFACTURE” (priority 2018, published 2019)
